Assay results taken from patent US7863408B2, “Body fluid compatible and biocompatible resin” (Asahi Kasei Kabushiki Kaisha, priority 2002, dated 2011).

Legend:
Colon 26 tumor cells = assay: Antitumor assay, Colon 26; type: in vivo, mouse; conditions: Balb/C mice, 50 mg/kg in terms of paclitaxel
Method: Further, a control solution was prepared by dissolving paclitaxel as such in a mixture of ethanol, Cremophore EL (manufactured and sold by Sigma, U.S.A.) and physiological saline. Thus, two types of solutions, namely, a test sample solution and a control solution were obtained. Six female Balb/C mice (six weeks old) were divided into two groups, each consisting of three mice, and subsequently, a 4% suspension of Colon 26 tumor cells was intradermally transplanted to the flank of each of the mice. […] Each mouse of the other group of the two groups received administration of the control solution, wherein the control solution was administered in the same manner as in the case of the administration of the test sample solution (i.e., the dose of paclitaxel was 50 mg/kg), thereby obtaining a control group of mice. Separately, a group consisting of five female Balb/C mice (six weeks old), which were transplanted with Colon 26 tumor cells in the same manner as mentioned above, was provided. Each of the mice of such group received the administration of only physiological saline in the same manner as in the case of the administration of the test sample solution, to thereby obtain a non-treated group of mice. Each of the above-mentioned administration of the test sample solution, control solution and physiological saline was performed every 4 days, 7 times in total in the above-mentioned manner.
(§1) Evaluation was made of the antitumor activity in terms of the change (with the lapse of time) of the average tumor volume (%). The tumor volume was determined as follows. The major and minor diameters (a and b, respectively) (each in mm) of the tumor were externally measured, and the tumor volume (V) was obtained according to the following formula.
Further, a control solution was prepared by dissolving paclitaxel as such in a mixture of ethanol, Cremophore EL (manufactured and sold by Sigma, U.S.A.) and physiological saline. Thus, five types of solutions, namely, four types of test sample solutions and one control solution were obtained. Twenty-five female Balb/C mice (six weeks old) were divided into five groups, each consisting of five mice, and subsequently, a 4% suspension of Colon 26 tumor cells was intradermally transplanted to the flank of each of the mice. After two days from the transplantation, four groups of the five groups of mice respectively received the administration of the four test sample solutions obtained above, wherein the dose of the compound was 50 mg/kg in terms of paclitaxel. Each mouse of the other group of the five groups received administration of the control solution, wherein the control solution was administered in the same manner as in the case of the administration of the test sample solution (i.e., the dose of paclitaxel was 50 mg/kg), thereby obtaining a control group of mice. Separately, a group consisting of nine female Balb/C mice (six weeks old), which were transplanted with Colon 26 tumor cells in the same manner as mentioned above, was provided. Each of the mice of such group received the administration of only physiological saline in the same manner as in the case of the administration of the test sample solution, to thereby obtain a non-treated group of mice. Each of the above-mentioned administration of the test sample solution, control solution and physiological saline was performed every 7 days, 4 times in total in the above mentioned manner.
as §1, with “volume” for “volume (V)”

[1] = Solubility in physiological saline; type: physicochemical; conditions: for dissolution of 10 mg compound in 0.1 ml of physiological saline / dissolution ratio in terms of camptothecin: Example 162; for dissolution ratio in terms of camptothecin: physiological saline, 10 mg compound in 0.1 ml
Method: 10 mg of each of compounds (203) and (206) was precisely weighed and individually added to 0.1 ml of physiological saline.

B16 melanoma cells = conditions: Example 149; C57BL/6 mice; 50 mg/kg in terms of paclitaxel, tail-vein injection; six days after administration
Method: Further, a control solution was prepared by dissolving paclitaxel as such in a mixture of ethanol, Cremophore EL (manufactured and sold by Sigma, U.S.A.) and physiological saline. Thus, two types of solutions, namely, a test sample solution and a control solution were obtained. Twenty-one female C57BL/6 mice (six weeks old) were divided into three groups, each consisting of seven mice, and subsequently, B16 melanoma cells were intradermally transplanted to the groin of each of the mice (5×10^6 cells per mouse). […] Each mouse of the other one group of the three groups received the administration of the control solution, wherein the control solution was administered in substantially the same manner as in the above-mentioned administration of the test sample solution, except that the dose of paclitaxel was 50 mg/kg, thereby obtaining a control group of mice. Separately, a group consisting of thirteen female C57BL/6 mice (six weeks old), which were transplanted with B16 melanoma cells in the same manner as mentioned above, was provided. Each of the mice of such group received the administration of physiological saline, to thereby obtain a non-treated group of mice.

[2] = Example 151, every 7 days, 4 times

Molecule: carboxymethylated polyether-2′-Leu-paclitaxel [(181)]
- order of the magnitudes of the antitumor activity (Colon 26 tumor cells; [2]): (177)/(179)>(181)>(183)/paclitaxel

Molecule: CC(=O)O[C@H]1C(=O)[C@@]2(C)[C@H]([C@H](OC(=O)c3ccccc3)[C@]3(O)C[C@H](OC(=O)[C@H](O)[C@@H](NC(=O)c4ccccc4)c4ccccc4)C(C)=C1C3(C)C)[C@]1(OC(C)=O)CO[C@@H]1C[C@@H]2O [paclitaxel, reference compound]
- dissolution of 1 mg in 10 ml of physiological saline ([1]; Example 145): not able to be completely dissolved
- order of the magnitudes of the antitumor activity (Colon 26 tumor cells; [2]): (177)/(179)>(181)>(183)/paclitaxel

Molecule: carboxymethylated polyether-2′-Gly-paclitaxel [Compound (177)]
- antitumor activity (average tumor volume with time) compared to paclitaxel as such (Colon 26 tumor cells; [2]): significantly excellent
- order of the magnitudes of the antitumor activity (Colon 26 tumor cells; [2]): (177)/(179)>(181)>(183)/paclitaxel

Molecule: carboxymethylated polyether-2′-Ile-paclitaxel [(183)]
- order of the magnitudes of the antitumor activity (Colon 26 tumor cells; [2]): (177)/(179)>(181)>(183)/paclitaxel

Molecule: carboxymethylated polyether-20-Gly-camptothecin [Compound (203)]
- dissolution of 10 mg compound in 0.1 ml of physiological saline [1]: completely dissolved
- dissolution ratio in terms of camptothecin [1]: 3.5 mg/mL

Molecule: carboxymethylated polyether-20-Gly-Gly-Phe-Gly-camptothecin [(206)]
- dissolution of 10 mg compound in 0.1 ml of physiological saline [1]: completely dissolved
- dissolution ratio in terms of camptothecin [1]: 4.5 mg/mL

Molecule: carboxymethylated polyether-2′-Gly-Gly-Phe-Gly-paclitaxel [Compound (197)]
- antitumor activity (relative average tumor volume) compared to paclitaxel as such (B16 melanoma cells): significantly excellent
- antitumor activity (average tumor volume with time) compared to paclitaxel as such (Colon 26 tumor cells; Example 150, every 4 days, 7 times): significantly excellent

Molecule: carboxymethylated polyether-2′-Ala-paclitaxel [(179)]
- antitumor activity (average tumor volume with time) compared to paclitaxel as such (Colon 26 tumor cells; [2]): significantly excellent
- order of the magnitudes of the antitumor activity (Colon 26 tumor cells; [2]): (177)/(179)>(181)>(183)/paclitaxel
